Results as given in PubChem BioAssay AID330 (DTP/NCI, 2004).
“And” between values parts separate entries of the source, which are not always exact repeats. Equal values may be shown once. Inconclusive results and toxic doses are left out. The calls were made as follows: active = survival T/C of 150% or more; inactive = T/C below 125% in these data.

Tested on: P388 leukemia ip, CD2F1 mice, survival T/C
Assay: NCI In Vivo Anticancer Drug Screen. Data for tumor model P388 Leukemia (intraperitoneal) in CD2F1 (CDF1) mice
Conditions: endpoint: median survival time, higher = longer survival
Summary of the method: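 Mice carrying the transplanted tumor received test compound or vehicle. Survival was recorded in each group, and the value is the treated-group measurement divided by that of the vehicle-treated control group.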

[1] = dose: 100.0 mg/kg/injection, schedule: Q01DX001 (ip), vehicle: Klucel (hydroxypropylcellulose) (HPC)
[2] = dose: 200.0 mg/kg/injection, schedule: Q01DX001 (ip), vehicle: Klucel (hydroxypropylcellulose) (HPC)
[3] = dose: 50.0 mg/kg/injection, schedule: Q01DX005 (ip), vehicle: Klucel (hydroxypropylcellulose) (HPC)
[4] = dose: 100.0 mg/kg/injection, schedule: Q01DX005 (ip), vehicle: Klucel (hydroxypropylcellulose) (HPC)
[5] = dose: 200.0 mg/kg/injection, schedule: Q01DX005 (ip), vehicle: Klucel (hydroxypropylcellulose) (HPC)
[6] = dose: 50.0 mg/kg/injection, schedule: Q01DX009 (ip), vehicle: Klucel (hydroxypropylcellulose) (HPC)
[7] = dose: 100.0 mg/kg/injection, schedule: Q01DX009 (ip), vehicle: Klucel (hydroxypropylcellulose) (HPC)
[8] = dose: 200.0 mg/kg/injection, schedule: Q01DX009 (ip), vehicle: Klucel (hydroxypropylcellulose) (HPC)
[9] = dose: 50.0 mg/kg/injection, schedule: Q01DX009 (ip), vehicle: saline with Tween-80
[10] = dose: 100.0 mg/kg/injection, schedule: Q01DX009 (ip), vehicle: saline with Tween-80
[11] = dose: 200.0 mg/kg/injection, schedule: Q01DX009 (ip), vehicle: saline with Tween-80
[12] = dose: 25.0 mg/kg/injection, schedule: Q01DX005 (ip), vehicle: Klucel (hydroxypropylcellulose) (HPC)
[13] = dose: 60.0 mg/kg/injection, schedule: Q01DX005 (ip), vehicle: Klucel (hydroxypropylcellulose) (HPC)
[14] = dose: 120.0 mg/kg/injection, schedule: Q01DX005 (ip), vehicle: Klucel (hydroxypropylcellulose) (HPC)
[15] = dose: 12.5 mg/kg/injection, schedule: Q01DX009 (ip), vehicle: other
[16] = dose: 25.0 mg/kg/injection, schedule: Q01DX009 (ip), vehicle: other

Measured: T/C

NS(=O)(=O)c1cc([N+](=O)[O-])c(SSc2sc(S(N)(=O)=O)cc2[N+](=O)[O-])s1
inactive: dose: 25.0 mg/kg/injection, schedule: Q04DX003 (ip), vehicle: Klucel (hydroxypropylcellulose) (HPC) 104 % of control | dose: 50.0 mg/kg/injection, schedule: Q04DX003 (ip), vehicle: Klucel (hydroxypropylcellulose) (HPC) 101 % of control | [1] 106 % of control | dose: 100.0 mg/kg/injection, schedule: Q04DX003 (ip), vehicle: Klucel (hydroxypropylcellulose) (HPC) 107 % of control | [2] 99 % of control

O=C(O)CNC(=O)OCC1c2ccccc2-c2ccccc21
inactive: [3] 100 % of control | [4] 95 % of control | [5] 100 % of control

O=C(CNC(=O)Nc1ccc(NC(=O)NCC(=O)Nc2ccc(C3=NCCN3)cc2)cc1)Nc1ccc(C2=NCCN2)cc1
inactive: dose: 50.0 mg/kg/injection, schedule: Q01DX009 (ip), vehicle: saline 105 % of control and 106 % of control | dose: 100.0 mg/kg/injection, schedule: Q01DX009 (ip), vehicle: saline 93 % of control | dose: 200.0 mg/kg/injection, schedule: Q01DX009 (ip), vehicle: saline 111 % of control and 97 % of control

CCCCCCN(CCCCCC)CC(O)c1ccc2c3c(cccc13)CC2 (centres undefined)
inactive: [6] 106 % of control | [7] 102 % of control | [8] 100 % of control

C(=C\c1ccccc1)/CN1CCN(C(c2ccccc2)c2ccccc2)CC1
inactive: [6] 97 % of control | [7] 94 % of control | [8] 90 % of control

OC(Nc1ncccn1)C(F)(F)F (centres undefined)
inactive: [9] 92 % of control | [10] 111 % of control | [11] 120 % of control

CCCOc1ccc(C(C)c2cc3c(cc2OC)OCO3)cc1 (centres undefined)
inactive: [12] 100 % of control | [3] 103 % of control | [4] 103 % of control | [5] 98 % of control

O=S1(=O)CCN(CCCCc2ccccc2)CC1
inactive: [6] 94 % of control | [7] 101 % of control | [8] 101 % of control

O=[N+]([O-])c1ccc(Cl)cc1C(Nc1nncs1)Nc1nncs1
inactive: [13] 107 % of control | [14] 106 % of control

CC(C)CC1N=C(NN=C2CCCCC2)SP1(=O)NNc1ncccn1 (centres undefined)
inactive: [13] 94 % of control | [14] 97 % of control

CCC[As](C)SC1OC(COC(C)=O)C(OC(C)=O)C(OC(C)=O)C1OC(C)=O (centres undefined)
inactive: [9] 110 % of control | [10] 110 % of control | [11] 110 % of control

CCCNC(=S)Nc1ccc(F)cc1F
inactive: dose: 3.12 mg/kg/injection, schedule: Q01DX009 (ip), vehicle: other 108 % of control | dose: 6.25 mg/kg/injection, schedule: Q01DX009 (ip), vehicle: other 107 % of control and 110 % of control and 89 % of control | [15] 99 % of control and 100 % of control and 101 % of control | [16] 108 % of control and 121 % of control and 96 % of control

CCOC(=O)c1c2n(c3ccccc13)C1(C(=O)OCC)CC1(C(C)=O)C1CN21 (centres undefined)
inactive: dose: 25.0 mg/kg/injection, schedule: Q01DX005 (ip), vehicle: saline with Tween-80 106 % of control | dose: 50.0 mg/kg/injection, schedule: Q01DX005 (ip), vehicle: saline with Tween-80 101 % of control and 108 % of control | dose: 100.0 mg/kg/injection, schedule: Q01DX005 (ip), vehicle: saline with Tween-80 106 % of control and 120 % of control | dose: 200.0 mg/kg/injection, schedule: Q01DX005 (ip), vehicle: saline with Tween-80 117 % of control and 119 % of control

Cc1cc(N=Nc2ccccc2)cc(C)c1N
inactive: [10] 90 % of control | [11] 90 % of control | dose: 400.0 mg/kg/injection, schedule: Q01DX009 (ip), vehicle: saline with Tween-80 100 % of control

Cc1ccccc1NC(=O)CCC(=O)NS(C)(=O)=O
inactive: dose: 100.0 mg/kg/injection, schedule: Q01DX001 (ip), vehicle: saline with Tween-80 102 % of control | dose: 200.0 mg/kg/injection, schedule: Q01DX001 (ip), vehicle: saline with Tween-80 95 % of control | dose: 400.0 mg/kg/injection, schedule: Q01DX001 (ip), vehicle: saline with Tween-80 95 % of control

COc1cc(Br)c(C(=O)N2CCc3ccccc32)cc1OC
inactive: [15] 93 % of control | [16] 90 % of control

Cc1nn(-c2ccccc2)nc1CCl
inactive: [3] 101 % of control | [4] 99 % of control | [5] 95 % of control

CC(=O)OC(C(=O)O)N1C(=O)C2C3C=CC(C2C1=O)C1C2C(=O)N(C(OC(C)=O)C(=O)O)C(=O)C2C31 (centres undefined)
inactive: dose: 25.0 mg/kg/injection, schedule: Q01DX009 (ip), vehicle: water 103 % of control | dose: 50.0 mg/kg/injection, schedule: Q01DX009 (ip), vehicle: water 110 % of control | dose: 100.0 mg/kg/injection, schedule: Q01DX009 (ip), vehicle: water 110 % of control and 113 % of control and 123 % of control

COC(=O)C1=C(C(=O)OC)C2OC1C(COC(=O)NC1CCCCC1)=C2COC(=O)NC1CCCCC1
inactive: dose: 12.5 mg/kg/injection, schedule: Q01DX009 (ip), vehicle: distilled water + Tween-80 89 % of control | dose: 25.0 mg/kg/injection, schedule: Q01DX009 (ip), vehicle: distilled water + Tween-80 87 % of control | dose: 50.0 mg/kg/injection, schedule: Q01DX009 (ip), vehicle: distilled water + Tween-80 89 % of control | dose: 100.0 mg/kg/injection, schedule: Q01DX009 (ip), vehicle: distilled water + Tween-80 87 % of control | dose: 200.0 mg/kg/injection, schedule: Q01DX009 (ip), vehicle: distilled water + Tween-80 101 % of control

S=c1nc(-c2ccccc2)[nH]c(=S)[nH]1
inactive: [1] 99 % of control | [2] 106 % of control | dose: 400.0 mg/kg/injection, schedule: Q01DX001 (ip), vehicle: Klucel (hydroxypropylcellulose) (HPC) 92 % of control

c1ccc(-c2cc3nncc(-c4ccccc4)n3n2)cc1
inactive: [3] 107 % of control | [4] 105 % of control | [5] 96 % of control

C=C1CC(OC(=O)C(C)C)C2C(=C)C(=O)O[C@@H]2C2C(=C)[C@@H](O)CC12 (some centres undefined)
inactive: dose: 20.0 mg/kg/injection, schedule: Q01DX005 (ip), vehicle: saline with Tween-80 102 % of control | dose: 40.0 mg/kg/injection, schedule: Q01DX005 (ip), vehicle: saline with Tween-80 106 % of control | dose: 80.0 mg/kg/injection, schedule: Q01DX005 (ip), vehicle: saline with Tween-80 115 % of control

CC(=O)OC(OC(C)=O)C(CSC#N)SC#N (centres undefined)
inactive: dose: 6.25 mg/kg/injection, schedule: Q01DX005 (ip), vehicle: Klucel (hydroxypropylcellulose) (HPC) 99 % of control | dose: 12.5 mg/kg/injection, schedule: Q01DX005 (ip), vehicle: Klucel (hydroxypropylcellulose) (HPC) 99 % of control | [12] 99 % of control | [3] 102 % of control | [4] 96 % of control | [5] 113 % of control

C=C1C(=O)OC2C1CCC(=C)C1CC(O)C(=C)C12 (centres undefined)
inactive: dose: 9.37 mg/kg/injection, schedule: Q01DX009 (ip), vehicle: suspension in saline 103 % of control | dose: 18.75 mg/kg/injection, schedule: Q01DX009 (ip), vehicle: suspension in saline 119 % of control and 123 % of control | dose: 37.5 mg/kg/injection, schedule: Q01DX009 (ip), vehicle: suspension in saline 121 % of control
